Key:
Details in all cases: 48 h
[1] = system: NCI-H295R; experiment: AC50 viability; higher = less potent
Procedure, shortened: (§1)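 Cells from three adrenocortical carcinoma lines were seeded at 500–1,000 cells/well in 5 µL medium in 1,536-well plates. Each library compound was added as 23 nL at 11 concentrations, and after 48 h CellTiter-Glo was added for 15 minutes at room temperature before reading luminescence. Plate-wise normalisation to vehicle and empty-well controls preceded curve fitting. AC50 and area under the curve were calculated only for inhibitory or non-responding curve classes.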

[2] = system: NCI-H295R; experiment: area under concentration-response curve (viability) (AUC (a.u.)); higher = less active
Procedure, shortened: as §1

[3] = system: CU-ACC1; experiment: as above
Procedure, shortened: as §1

[4] = system: CU-ACC2; experiment: as above
Procedure, shortened: as §1

| SMILES | AC50 viability [1] | area under concentration-response curve [2] | area under concentration-response curve [3] | area under concentration-response curve [4] |
| --- | --- | --- | --- | --- |
| CCOC(=O)[C@@H](N)Cc1ccc(-c2cc(O[C@H](c3ccc(Cl)cc3-n3ccc(C)n3)C(F)(F)F)nc(N)n2)cc1 | 20.9 µM | 506 | – | – |
| CCOc1cc2c(c(F)c1OCC)C(=N)N(CC(=O)c1cc(N3CCOCC3)c(OC)c(C(C)(C)C)c1)C2 | 20.9 µM | 492 | – | – |
| CCN(CC)C(=O)C1=CC=C(C=C1)C/2=C/C3(CCNCC3)OC4=CC=CC(=C24)O | 20.9 µM | 404 | – | – |
| CCCCc1oc2ccccc2c1C(=O)c1cc(I)c(OCCN(CC)CC)c(I)c1 | 23.5 µM | 479 | – | – |
| CN(C)CC(=O)N1CCC(CC1)C2=CC=C(NC(=O)C3=NC(=C[NH]3)C#N)C(=C2)\C4=C\CCCC4 | 23.5 µM | 553 | – | – |
| C[C@@H]1C[C@H]2[C@@H]3CC\C4=C\C(=O)\C=C/[C@]4(C)[C@@]3(Cl)[C@@H](O)C[C@]2(C)[C@@]1(OC(=O)C5=CC=CO5)C(=O)CCl | 37.2 µM | 580 | – | – |
| Clc1ccc(CCC(Cn2ccnc2)Sc2c(Cl)cccc2Cl)cc1 (centres undefined) | 33.2 µM | 491 | – | – |
| COc1cc(Nc2ncc(F)c(Nc3ccc4c(n3)N(COP(=O)(O)O)C(=O)C(C)(C)O4)n2)cc(OC)c1OC | 14.8 µM | 512 | – | – |
| Cc1ccc(Nc2nnc(Cc3ccncc3)c3ccccc23)cc1Br | 18.6 µM | 438 | – | – |
| Cc1nc(-c2cccnc2)sc1C(=O)Nc1ccccc1-c1cn2c(CN3CCOCC3)csc2n1 | – | 504 | 454 | 456 |
| CCOC(=O)C/1=C(C)/NC(=S)NC1C2=CC=CC(=C2)O (centres undefined) | – | 526 | 498 | 545 |
| COC[C@@H](NC(C)=O)C(=O)NCc1ccccc1 | – | 560 | 503 | 619 |
| OC1CCC(Nc2ncc3nc(Nc4c(F)cc(F)cc4F)n([C@@H]4CCOC4)c3n2)CC1 (some centres undefined) | – | 446 | 464 | 531 |
| CC1=CC/2=C(C=C1C)N(C[C@@H](O)[C@@H](O)[C@@H](O)CO)C/3=N/C(=O)NC(=O)C3=N2 | – | 505 | 481 | 586 |
| CN(C)[C@H]\1[C@@H]2[C@@H](O)[C@@H]\3C(=C)C4=C(C(=CC=C4)O)C(=O)C3=C(\O)[C@@]2(O)C(=O)\C(=C1O)C(N)=O | – | 540 | 493 | 473 |
| COc1cc(CNC(=O)CCCC/C=C/C(C)C)ccc1O | – | 599 | 542 | 653 |
| Cn1cnc2c(F)c(Nc3ccc(Br)cc3Cl)c(C(=O)NOCCO)cc21 | – | 500 | 463 | 493 |
| O=C(O)/C=C/c1ccc(Cn2ccnc2)cc1 | – | 572 | 485 | 486 |
| CC(C)C[C@H](NC(=O)[C@H](Cc1ccccc1)NC(=O)OCc1ccccc1)C(=O)C=O | – | 504 | 456 | 531 |
| CC(C)(Oc1ccc(C2CC2(Cl)Cl)cc1)C(=O)O (centres undefined) | – | 526 | 502 | 483 |
| COC(=O)CCC1=C(C)C2=CC3=NC(=CC4=C(C)C(=C([NH]4)C=C\5N=C(C=C1[NH]2)\C(=C5C)CCC(O)=O)C=C)\C6=C\C=C(/[C@@H](C(=O)OC)[C@@]36C)C(=O)OC | – | 462 | 438 | 416 |
| COc1cc[nH]c2ncc(C(=O)C(=O)N3CCN(C(=O)c4ccccc4)C[C@H]3C)c1-2 | – | 560 | 545 | 632 |
| Cn1cc(-c2ccc3nnc(Sc4ccc5ncccc5c4)n3n2)cn1 | – | 525 | 516 | 447 |

| SMILES | AC50 viability [1] | area under concentration-response curve [2] | area under concentration-response curve [3] | area under concentration-response curve [4] |
| --- | --- | --- | --- | --- |
| COc1ccc(CC2SC(=O)NC2=O)cc1C(=O)NCc1ccc(C(F)(F)F)cc1 (centres undefined) | – | 585 | 570 | 645 |
| Cc1ccc(C(=O)Nc2ccc([S+](=O)([O-])O)c3cc([S+](=O)([O-])O)cc([S+](=O)([O-])O)c23)cc1NC(=O)c1cccc(NC(=O)Nc2cccc(C(=O)Nc3cc(C(=O)Nc4ccc([S+](=O)([O-])O)c5cc([S+](=O)([O-])O)cc([S+](=O)([O-])O)c45)ccc3C)c2)c1 | – | 488 | 420 | 488 |
| COc1cc([S+](C)(=O)[O-])ccc1Nc1nc2ccc(-c3ccc(NC(=O)[C@H](C)c4ccc(F)cc4)cc3)cn2n1 | – | 567 | 565 | 648 |
| CSCC[C@@H](NC(=O)[C@@H](Cc1ccccc1)NC(=O)CNC(=O)CNC(=O)[C@@H](N)Cc1ccc(O)cc1)C(=O)O | – | 566 | 535 | 616 |
| CC1(C)CC(O)CC(C)(C)N1[O] | – | 511 | 517 | 626 |
| COC1=CC(=C2C(=O)N\C(=N/C2=C1)C3=CC(=C(OCCO)C(=C3)C)C)OC | – | 541 | 532 | 532 |
| Nc1ncnc2c1C(=O)N(c1ccc([C@H]3CC[C@H](CC(=O)O)CC3)cc1)CCO2 | – | 509 | 497 | 554 |
| CCn1c(=O)c2c(nc(/C=C/c3ccc(OC)c(OC)c3)n2C)n(CC)c1=O | – | 431 | 431 | 434 |
| Cn1nccc1Nc1nccc(-c2cc3c(s2)C(C)(C)N(CCN2CCOCC2)C3=O)n1 | – | 544 | 528 | 589 |
| c1ccc2[nH]c(-c3cscn3)nc2c1 | – | 556 | 557 | 630 |
| O=C1[C@H](CC[C@H](O)c2ccc(F)cc2)[C@@H](c2ccc(O)cc2)N1c1ccc(F)cc1 | – | 565 | 536 | 650 |
| CN(C)c1nc(N(C)C)nc(N(C)C)n1 | – | 476 | 509 | 577 |
| O=C1CCCC(=O)C1C(=O)c1ccc(C(F)(F)F)cc1[N+](=O)[O-] | – | 545 | 565 | 576 |
| Cc1[nH]c(/C=C2\C(=O)Nc3ccccc32)c(C)c1CCC(=O)O | – | 480 | 496 | 535 |
| Cc1noc2c1-c1ccccc1C(c1ccc(Cl)cc1)=N[C@H]2CC(N)=O | – | 466 | 495 | 568 |
| CC(=O)O[C@@]1(CC[C@H]2[C@@H]3\C=C(C)/C4=C/C(=O)CC[C@]4(C)[C@H]3CC[C@]12C)C(C)=O | – | 492 | 471 | 553 |
| Nc1ncc(C(=O)NC2CN(C(=O)C3CC3)C2)c2ccc(-c3cccc(F)c3)nc12 | – | 574 | 538 | 647 |
| CN[C@@H]1[C@H](O[C@H]2[C@H](O[C@@H]3[C@@H](O)[C@H](O)[C@@H](NC(=N)N)[C@H](O)[C@H]3NC(=N)N)O[C@@H](C)[C@]2(O)C=O)O[C@@H](CO)[C@H](O)[C@H]1O | – | 553 | 516 | 606 |
| CCNC(=O)CCC/C=C\C[C@@H]1[C@@H](/C=C/C(O)CCc2ccccc2)[C@@H](O)C[C@@H]1O (some centres undefined) | – | 571 | 508 | 646 |
| CCC(C)N1\N=C/N(C1=O)C2=CC=C(C=C2)N3CCN(CC3)C4=CC=C(OC[C@H]5CO[C@@](C[N]6C=NC=N6)(O5)C7=CC=C(Cl)C=C7Cl)C=C4 (some centres undefined) | – | 574 | 556 | 676 |
| CC(=O)OCC(=O)[C@@]1(O)CC[C@H]2[C@@H]3CCC/4=C/C(=O)/C=C\[C@]4(C)[C@H]3[C@@H](O)C[C@]12C | – | 506 | 460 | 471 |
| CC(C)(CNC(=O)c1cccc(-c2noc(C(F)(F)F)n2)c1)c1coc(-c2ccccc2)n1 | – | 506 | 558 | 585 |
| Clc1ccc2ncc(-c3cccc(NC4CNC4)n3)n2c1 | – | 576 | 522 | 644 |

— the supplement of paper PMC10949913
